Series [1] deals with SARS‐CoV‐2. The settings on record: Severe acute respiratory syndrome coronavirus 2, Calu-3, 72 h.
Description: (§1) Briefly, two‐fold fold serial dilutions of compounds were added in triplicate in a 384‐well plate with 15,000 Calu‐3 cells in DMEM medium with 2 % FBS, 100 U of penicillin/ml and 100 μg of streptomycin/ml (all Merck). After 1 h incubation SARS‐CoV‐2 was added at multiplicity of infection 0.01. Following three days incubation at 37 °C in 5 % CO2 the cell viability was determined by addition of XTT solution (Sigma‐Aldrich) for 4 h and the absorbance was measured using EnVision plate reader (Perkin Elmer). Drug concentrations required to reduce viral cytopathic effect by 50 % (EC50) were calculated using nonlinear regression from plots of percentage cell viability versus log10 drug concentration using GraphPad Prism v.9.0.0 (GraphPad Software). Cytotoxicity was evaluated by incubating the same two‐fold serial dilutions of each compound with Calu‐3 cells as above but without virus. Following three days of incubation at 37 °C in 5 % CO2, the cell viability was determined by the addition of XTT solution as above. The compound concentrations resulting in a 50 % reduction of absorbance (CC50) were calculated from plots of the percentage of absorbance versus log10 drug concentration as above.
The nature of series [2]: in vitro. The following applies: human.
Description: as §1
Series [3] in a line: Solubility in water (stated in words). It counts as physicochemical.
Series [4] concerns the target SARS‐CoV‐2 RdRp complex (nsp12, nsp7, nsp8) (Severe acute respiratory syndrome coronavirus 2, UniProt P0DTD1). The experiment in a line: Fluorescence-based RdRp polymerase assay (SYBR Green I RNA extension). It counts as biochemical.
For series [5], the system named is COVID‐19. The settings on record: cited from earlier work.
A short description of series [6]: Kinetic solubility test in enzymatic assay medium. The settings on record: aqueous HEPES buffer with 5 % DMSO, pH 8, aqueous with cosolvent or surfactant or cyclodextrin, kinetic from dmso stock. Type of series: physicochemical. Here is the method:
Kinetic solubility tests were performed in the medium used for the enzymatic assay–aqueous solution of HEPES buffer with 5 % DMSO. […] This poor aqueous solubility represents a big hurdle in the development of potential antivirals and the improvement of solubility will be considered in further structural optimization efforts of this class of compounds.

Series [7] concerns Calu‐3 cells. Briefly: Cytotoxicity in Calu-3 cells without virus (XTT). The following applies: Calu‐3 cells, no virus, three days. (Tetrazolium assays rely on reduction of a dye to a coloured formazan, in cell work by metabolically active cells.)
Description: as §1
Series [8] is described as follows: Cytotoxicity in Calu-3 cells without virus (XTT). The following applies: human, CC50, Calu‐3 cells, no virus, three days.
Description: as §1
Series [9] deals with SARS‐CoV‐2. The following applies: cited from earlier work.
Setting [10] is: 50 min, read-out: residual activity (RA) of the SARS‐CoV‐2 RdRp complex.
Where [11] appears, read: read-out: residual activity (RA) of SARS‐CoV‐2 RdRp.

Structures are written as SMILES. Values after ≈ are worked out from the molar mass of the structure shown. Read-outs that look alike come from different tables or passages of the source.

Usually EC50 stands for the midpoint of the concentration-response curve. A higher EC50 goes with a less potent agent. For orientation: kinetic solubility means the concentration staying in solution when a stock, usually in DMSO, is diluted into the medium.

The molecule `CC(C)OC(=O)c1cc(NC(=O)Nc2cccc([N+](=O)[O-])c2)cc(C(=O)OC(C)C)c1` [Compound 1] showed a concentration giving a half-maximal response (EC50) in series [1] above 23 µM. The molecule further came in with a CC50 at 3 days in series [2] of 23 µM. The solubility in water result in series [3] was “poorly soluble in water”. Besides, in series [4] (setting [10]), the remaining activity at 10 µM was 57%.
Turning to `CC(C)C(=O)OC[C@H]1O[C@@H](n2ccc(NO)nc2=O)[C@H](O)[C@@H]1O` [Molnupiravir, molnupiravir], the “post‐hospitalization mortality rate” value in [5] (30‐day‐long study, patients with moderate COVID‐19, placebo 9.7 %) is reported as 6.8%.
The molecule `O=C(Nc1cc(Cl)cc(Cl)c1)Nc1cccc(C(F)(F)F)c1` [Compound 47, 1‐(3,5‐Dichlorophenyl)‐3‐(3‐(Trifluoromethyl)phenyl)urea] showed an EC50 in [1] above 0.49 µM. Moreover, the solubility (kinetic) in series [6] was below 2 µM. For the same molecule, the CC50 at 3 days in series [2] turned out to be 0.49 µM. Besides, the remaining activity at 10 µM in series [4] (setting [10]) amounted to 45%.
In turn, `FC(F)(F)c1cccc(Nc2nc3cc(Cl)c(Cl)cc3[nH]2)c1` [Compound 56, 5,6‐Dichloro‐N‐(3‐(Trifluoromethyl)phenyl)‐1H‐Benzo[d]imidazol‐2‐Amine] displayed an EC50 in series [1] above 43 µM. Also, the kinetic solubility in series [6] came to 7 ± 0.1 µM (≈ 2.42 µg/mL). The same molecule came in with a CC50 at 3 days in series [2] of 43 µM. The remaining activity at 10 µM in series [4] (setting [10]) was 60%.
In the case of `FC(F)(F)c1ccc2nc(-c3nc4cc(Cl)c(Cl)cc4[nH]3)[nH]c2c1` [Compound 55, 5,6‐Dichloro‐6′‐(Trifluoromethyl)‐1 H ,1′H‐2,2′‐Bibenzo[d]imidazole], the concentration for a half-maximal effect (EC50) in series [1] is above 2.1 µM. Also, the kinetic solubility in series [6] was determined as 2.9 ± 0.6 µM (≈ 1.08 µg/mL). Also, in [2], the CC50 at 3 days worked out at 2.1 µM. Also, the remaining activity at 10 µM in series [4] (setting [10]) was 42%.
Consider `CCC(CC)COC(=O)[C@H](C)N[P@](=O)(OC[C@H]1O[C@@](C#N)(c2ccc3c(N)ncnn23)[C@H](O)[C@@H]1O)Oc1ccccc1` [Remdesivir, remdesivir, reference compound], for which the EC50 in series [1] is 0.11 µM. For the same molecule, in series [7], the CC50 is above 5 µM. In [8], this molecule yielded a CC50 at 3 days above 3.2 µM. Further, in series [4] (setting [11]), the remaining activity at 10 µM came out at 62%, the remaining activity at 50 µM is 40% and the remaining activity at 100 µM turned out to be 25%. For the same molecule, in series [5] (Adaptive COVID Treatment Trial (ACTT), placebo 15.2 %), the “mortality among hospitalized adults” value is recorded as 11.4%. Also, the “improvement compared with placebo” value in series [5] (Hubei (China) study) is reported as “no statistically significant improvement”.
As for `O=C(Nc1cc(C(F)(F)F)cc(C(F)(F)F)c1)Nc1ccc(Br)cc1-c1nnn[nH]1` [Endovion, endovion, reference compound], the EC50 in [1] is above 64 µM. In series [2], the CC50 at 3 days was above 64 µM. In addition, the solubility in water result in [3] is listed as “poorly soluble in water”. Moreover, in series [4] (setting [10]), the remaining activity at 10 µM came to 40%. The “activity in cell assays against the virus” value in [9] is on record as “active”.
Regarding `NC(=O)c1nc(F)c[nH]c1=O` [favipiravir], the clinical recovery rate entry in series [5] (open‐label randomized trial in China, COVID‐19 patients) was “did not significantly improve”.
In [1], `O=C(Nc1cccc(C(F)(F)F)c1)Nc1nc2cc(Cl)c(Cl)cc2[nH]1` [Compound 59, 1‐(5,6‐Dichloro‐1H‐Benzo[d]imidazol‐2‐yl)‐3‐(3‐(Trifluoromethyl)phenyl)urea] displayed an EC50 of around 10 µM. The molecule further had a solubility (kinetic) in series [6] of 2.53 ± 0.03 µM (≈ 0.985 µg/mL). Also, the CC50 at 3 days in series [2] is 23 µM. In addition, in series [4] (setting [10]), the remaining activity at 10 µM was determined as 50%.

The values above are taken from paper PMC11617668, “Developing Allosteric Inhibitors of SARS‐CoV‐2 RNA‐Dependent RNA Polymerase” (Chemmedchem, 2024).
